Target: Gastrin-releasing peptide receptor (Homo sapiens, UniProt P30550)
Assay: Displacement of [125I-Tyr4]BN form BB2 receptor in human PC3 cells
Type: cell-based, PC-3

Sequence of Gastrin-releasing peptide receptor (P30550 whole entry): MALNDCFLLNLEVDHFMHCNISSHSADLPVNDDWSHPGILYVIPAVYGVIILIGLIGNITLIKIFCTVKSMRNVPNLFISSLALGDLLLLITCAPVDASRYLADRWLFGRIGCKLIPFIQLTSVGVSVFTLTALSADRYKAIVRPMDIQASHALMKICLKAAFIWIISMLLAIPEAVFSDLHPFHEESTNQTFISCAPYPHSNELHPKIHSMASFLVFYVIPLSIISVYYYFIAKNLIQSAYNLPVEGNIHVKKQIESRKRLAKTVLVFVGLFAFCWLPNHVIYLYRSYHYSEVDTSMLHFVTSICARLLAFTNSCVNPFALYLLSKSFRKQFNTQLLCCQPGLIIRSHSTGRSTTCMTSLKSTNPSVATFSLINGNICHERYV

Structure (SMILES)	IC50
CSCC[C@H](NC(=O)[C@H](CC(C)C)NC(=O)[C@H](Cc1cnc[nH]1)NC(=O)CNC(=O)[C@@H](NC(=O)[C@H](C)NC(=O)[C@H](Cc1c[nH]c2ccccc12)NC(=O)[C@H](CCC(N)=O)NC(=O)CCCCCNC(=O)[C@H](CS)NC(=O)CNC(=O)CN)C(C)C)C(N)=O	1.45 nM
CSCC[C@H](NC(=O)[C@H](CC(C)C)NC(=O)[C@H](Cc1cnc[nH]1)NC(=O)CNC(=O)[C@@H](NC(=O)[C@H](C)NC(=O)[C@H](Cc1c[nH]c2ccccc12)NC(=O)[C@H](CCC(N)=O)NC(=O)[C@H](CC(N)=O)NC(=O)CNC(=O)[C@H](CC(C)C)NC(=O)[C@H](CCCNC(=N)N)NC(=O)[C@H](CCC(N)=O)NC(=O)CCCCCNC(=O)[C@H](CS)NC(=O)CNC(=O)CN)C(C)C)C(N)=O	0.59 nM

Source: ChEMBL document CHEMBL1137776, “Structural assessment and biological evaluation of two N3S bombesin derivatives” (J Med Chem, 2009)
